Reference: patent publication US6069132A, “Phosphazole compounds” (priority 1997, dated 2000)
Values after ≈ are worked out from the molar mass of the structure shown.

What was measured:
HCMV = settings: cited from earlier work
HSV-1 = HSV-1 CPE assay in Vero cells; format: cell-based; settings: Human alphaherpesvirus 1, Vero; Table 4
[1] = Cytotoxicity on static MRC-5 cells; format: cell-based; settings: human, Table 4, 50% cell death (static cells), read-out: TC50 Static MRC-5
Description: (§1) Cell Culture. Vero (African Green Monkey kidney cells) and MRC-5 (diploid Human Embryonic Lung fibroblasts) cells were obtained from the American Type Culture Collection (ATCC) and were grown in minimal essential medium (MEM) with Earl's salts and glutamine (GIBCO BRL, Life Technologies, Inc.) with 10% heat inactivated fetal bovine serum (GIBCO BRL) and penicillin (100 μg/mL)/streptomycin (100 μg/mL).
(§2) Cytotoxicity Analysis. The cytotoxicity of the compound was assayed using few the CellTiter 96™ Aqueous Non-Radioactive Cell Proliferation (MTS) Assay (Promega). Briefly, viable cell number was determined by trypan blue staining and cells (MRC-5 and Vero) were resuspended in minimal essential medium (MEM) supplemented with 10% FBS (GIBCO). Eighty microliters of cell suspension (1.7×10^4 cells/well) was dispensed onto a 96-well microtiter plates. At this time 20 μL of drug (or control) was added to appropriate wells. Each concentration was assayed in quadruplicate. The plates were incubated at 37° C. in a humidified 5% CO2 atmosphere for 4 days and MTS assay was performed according to the manufacturer's instructions. The average absorbence of the sample was graphed for each concentration and the data obtained was used to calculate TC50 (the concentration necessary to give one-half maximum growth) for each compound.

HSV-2 = HSV-2 CPE assay in Vero cells; format: cell-based; settings: Human alphaherpesvirus 2, Vero; Table 4
[2] = Cytotoxicity on growing Vero cells (MTS); format: cell-based; settings: african green monkey, Table 4, 50% inhibition of logphase growing cells, read-out: TC50 Growing Vero
Description: as §1, §2

[3] = Cytotoxicity on static Vero cells; format: cell-based; settings: african green monkey, Table 4, 50% cell death (static cells), read-out: TC50 Static Vero
Description: as §1, §2

[4] = Cytotoxicity on growing MRC-5 cells (MTS); format: cell-based, human; settings: human, mrc-5 cells; Table 4; 50% inhibition of logphase growing cells; read-out: TC50 Growing MRC-5
Description: as §1, §2

IL-1β = assay: Inhibition of IL-1β production in LPS-stimulated THP-1 cells (ELISA); format: cell-based, human; settings: for IC50: Homo sapiens, Table 2, LPS-stimulated THP-1, 6 h post-stimulation, read-out: IC50 IL-1β in THP-1 cells
Description: (§3) Cell line. THP-1 cells (human monocyte) were maintained in RPMI 1640 medium containing 25 mM Hepes buffer, 2 mM L-glutamine, 50 units of penicillin per mL, 50 μg of streptomycin sulfate per mL, and 10% heat-inactivated fetal bovine serum (FBS) in a humidified incubator containing 5% CO2. The cells were split 1:4 weekly as recommended by the American Type Culture Collection (ATCC).
TNFα assay. Varying concentrations of the test compound or control compound were added to THP-1 cells plated at a density of 1×10^6cells/mL in 600 μL of 10% RPMI in a 48 well plate. After one hour the cells were stimulated with 0.5 μg of lipopolysaccharide (LPS; Sigma, lot number 43H40491) per mL. Six hours post-stimulation supernatants were collected and assayed for TNFα or IL-1β production using a commercially available cytokine detection ELISA (Enzyme Linked Immunosorbent Assay) kit according to the suppliers instructions. A suitable assay kit may be obtained from Biosource, or R and D systems. A novel xanthine analog, HWA-3138, having the structure (as shown below) was used as the control compound (30) in this study to monitor the response of the THP-l cells. Xanthine analogs are known inhibitors of TNFα but not IL-1β. In the following experiments compound HWA-3138 was used as a positive control. [drawing 58] […]
THP-1 cells were cultured and IL-1β inhibition assays were conducted as described for TNFα in Example 46, except a commercially available IL-1β assay kit, obtained from R and D Systems, Minneapolis, Minn., was used instead of the TNFα kit.
With reference now to FIG. 8, for each concentration of T70241 tested, the membrane bound IL-1β was separated from the IL-1β found free in the culture medium at 6 hours post-LPS stimulation as described in Example 46 for TNFα, and the percent inhibition of each fraction was graphed.

TNFα [5] = assay: Inhibition of TNFα production in LPS-stimulated THP-1 cells (ELISA); format: cell-based, human; settings: for IC50: Homo sapiens, Table 2, LPS-stimulated THP-1, 6 h post-stimulation
Description: as §3
TNFα assay. Varying concentrations of the test compound or control compound were added to THP-1 cells plated at a density of 1×10^6cells/mL in 600 μL of 10% RPMI in a 48 well plate. After one hour the cells were stimulated with 0.5 μg of lipopolysaccharide (LPS; Sigma, lot number 43H40491) per mL. Six hours post-stimulation supernatants were collected and assayed for TNFα or IL-1β production using a commercially available cytokine detection ELISA (Enzyme Linked Immunosorbent Assay) kit according to the suppliers instructions. A suitable assay kit may be obtained from Biosource, or R and D systems. A novel xanthine analog, HWA-3138, having the structure (as shown below) was used as the control compound (30) in this study to monitor the response of the THP-l cells. Xanthine analogs are known inhibitors of TNFα but not IL-1β. In the following experiments compound HWA-3138 was used as a positive control. [drawing 58]
Time of Addition. Varying concentrations of test or control compounds were added to THP-1 cells (1×10^6 cells/mL) at different time points post-stimulation using 0.5 μg of LPS (Sigma, lot number 43H40491) per mL in 300 μL of 10% RPMI in a 48 well plate. Six hours post-stimulationsupernatants were collected and assayed for TNFα or IL-1β production using a Biosource cytokine detection ELISA (Enzyme Linked Immunosorbent Assay) kit according to the supplier's instructions.
The membrane bound TNFα was separated from the free TNFα in the culture medium at 6 hours post-LPS stimulation as follows: The corresponding cells were centrifuged at 3500 rpm (~1,000×g) for 6 min. The supernatants were removed and the cell pellets were then resuspended in 200 μL of 0.25 mM Tris-HCl (pH 7.4). The cell associated TNFα was prepared by freezing the cell suspension in dry ice/ethanol and thawing at 37° C. three times with Vortexing in-between freeze-thaw cycles. Each cycle was 4-5 min apart.
To determine the long-term effects of phosphazole compound T70241 on TNFα production after a single treatment, THP-1 cells were pre-incubated with T70241, washed and resuspended in drug free medium. The xanthine analog HWA-3138 was used as a control.

[6] = system: adenosine deaminase (ADA); assay: Enzymatic hydrolysis by adenosine deaminase; format: in vitro ADME, calf; settings: 25° C.
Description: Adenosine deaminase (ADA, adenosine aminohydrolase, EC 3.5.4.4, SIGMA) from calf intestinal mucosa was prepared to give a stock of 1 mg/mL (250-280 units/mL) in pH 7.4, 0.01 M phosphate buffer. The relative rates of hydrolysis of selected compounds by ADA and characterization of the products was carried as follows. […] Fifty-microliter aliquots were taken at time intervals and hydrolysis was quenched by mixing with 0.45 mL of distilled water and then the diluted sample was heated at 95° C. for 6 min to ensure enxyme deactivation. The decrease in substrate concentration and the formation of the products was followed over time by UV-spectroscopic analysis. Adenosine was used as a control in this experiment and one unit is defined as the amount of ADA that hydrolyzes 1.0 μmol of adenosine/min at 25° C.

TNFα [7] = settings: by inhibition of PDE activity; cited from earlier work
[8] = Cytotoxicity on growing THP-1 cells (MTS assay); format: cell-based, human; settings: human, thp-1 cells; Table 2; drug dose required to inhibit logphase growing cells by 50%; read-out: TC50 Growing THP-1
Description: Cytotoxicity Analysis. The cytotoxicity of the compounds were assayed using the CellTiter 96™ Aqueous Non-Radioactive Cell Proliferation (MTS) Assay kit obtained from Promega (Madison, Wis.) following the instructions provided by the supplier. The viable cell number was determined by trypan blue staining and cells (THP-1) were resuspended in PRMI supplemented with 10% FBS (GIBCO). Eighty microliters of cell suspension (1.7×10^4cells/well) was dispensed onto a 96-well microtiter plates. At this time 20 μL of drug (or control) was added to appropriate wells. Each concentration was assayed in quadruplicate. The plates were incubated at 37° C. in a humidified 5% CO2 atmosphere for 4 days and MTS assay […] for each concentration and the data obtained was used to calculate TC50 (the concentration of the compound necessary to inhibit the cell growth by 50%) for each compound.

**Q.** Which “activity against HCMV” value (HCMV) does the source give for `NC(=O)c1cn([C@H]2C[C@H](O)[C@@H](CO)O2)c2ncnc(N)c12` [2'-deoxysangivamycin] here?
**A.** selective activity against HCMV

**Q.** Which results are given for `Nc1nc2c(ncn2COCCO)c(=O)[nH]1` [ACV, acyclovir, reference compound]?
**A.** IC50 (HSV-1): 0.1 µg/mL (≈ 0.444 µM); CC50 at 96 h [1]: > 250 µg/mL; IC50 (HSV-2): 0.74 µg/mL (≈ 3.29 µM); CC50 at 96 h [2]: > 250 µg/mL; CC50 at 96 h [3]: > 250 µg/mL; CC50 at 96 h [4]: > 250 µg/mL

**Q.** What does the source list for `Nc1ncnc2nc[nH]c12` [Adenine, reference compound]?
**A.** IC50 (IL-1β): > 250 µg/mL; IC50 (TNFα [5]): > 250 µg/mL

**Q.** With `Nc1ncnc2c1ncn2[C@@H]1O[C@H](CO)[C@@H](O)[C@H]1O` [Adenosine, reference compound] as the compound, how does the IC50 (IL-1β) read?
**A.** > 250 µg/mL

**Q.** What about the IC50 (TNFα [5]) of the same compound?
**A.** 100 µg/mL (≈ 374 µM)

**Q.** What about the “rate of hydrolysis by ADA” value [6] of the same compound?
**A.** 1.0 pmole/unit per min

**Q.** And the “suppression of TNFα production” value (TNFα [7])?
**A.** suppression of TNFα production

**Q.** For `Cn1c(=O)n(CCCCC(C)(C)O)c(=O)c2nc[nH]c21` [HWA-3138, reference compound], which “inhibition of IL-1β production” value (IL-1β; 10-250 μg/mL, THP-1 (FIG. 6)) is on record?
**A.** does not inhibit IL-1β production

**Q.** And the IC50 (IL-1β)?
**A.** > 500 µg/mL

**Q.** What about the “inhibition of TNFα production” value (TNFα [5]; 10 and 100 μg/mL, THP-1, 6 h post-stimulation (FIG. 2)) of the same compound?
**A.** no inhibition

**Q.** And the IC50 (TNFα [5])?
**A.** 255 µg/mL (≈ 908 µM)

**Q.** What about the CC50 at 96 h [8] of the same compound?
**A.** 316 µg/mL (≈ 1130 µM)

**Q.** With `O=c1[nH]cnc2pc[nH]c12` (centres unmarked) [T70256, 1,3-azaphospholo[4,5-d]pyrimidin-7(1H,6H)-one] as the compound, how does the IC50 (IL-1β) read?
**A.** 170 µg/mL (≈ 1110 µM)

**Q.** What about the IC50 (TNFα [5]) of the same compound?
**A.** 168 µg/mL (≈ 1100 µM)

**Q.** Which IC50 (IL-1β) does the source give for `Nc1ncnc2pcn([C@@H]3O[C@H](CO)[C@@H](O)[C@H]3O)c12` (stereo partly drawn) [T70264, 7-Amino-1-(β-D-ribofuranosyl)-1,3-azaphospholo-[4,5-d]pyrimidine] here?
**A.** > 100 µg/mL

**Q.** What about the IC50 (TNFα [5]) of the same compound?
**A.** 126 µg/mL (≈ 444 µM)

**Q.** And the CC50 at 96 h [8]?
**A.** 118 µg/mL (≈ 413 µM)
